Results taken from PubChem BioAssay AID248 (DTP/NCI, 2004).
Inconclusive results and toxic doses are left out.

Tested on: L1210 leukemia ip in BDF1 mice, survival T/C
Assay: NCI In Vivo Anticancer Drug Screen. Data for tumor model L1210 Leukemia (intraperitoneal) in B6D2F1 (BDF1) mice
Details: endpoint: mean survival time, higher = longer survival
How it was run: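 Read-out is survival time, reported as the treated-group measurement over the vehicle-control measurement.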

[1] = dose: 100.0 mg/kg/injection, schedule: Q04DX003 (ip), vehicle: saline
[2] = dose: 200.0 mg/kg/injection, schedule: Q04DX003 (ip), vehicle: saline

CCOC(=O)CSC(=S)SCC(=O)OCC
T/C [1]: 104 % of control | T/C [2]: 105 % of control | T/C (dose: 400.0 mg/kg/injection, schedule: Q04DX003 (ip), vehicle: saline): 107 % of control

CC(C)(CO)N=Cc1ccccc1O.CC(C)(CO)N=Cc1ccccc1O.[Co]
T/C (dose: 12.5 mg/kg/injection, schedule: Q01DX001 (ip), vehicle: saline): 97 % of control | T/C (dose: 25.0 mg/kg/injection, schedule: Q01DX001 (ip), vehicle: saline): 97 % of control | T/C (dose: 50.0 mg/kg/injection, schedule: Q01DX001 (ip), vehicle: saline): 92 % of control

Cc1ccc(/C=C2/C=C(c3ccccc3)OC2=O)cc1
T/C (dose: 50.0 mg/kg/injection, schedule: Q01DX009 (ip), vehicle: alcohol): 87 % of control | T/C (dose: 100.0 mg/kg/injection, schedule: Q01DX009 (ip), vehicle: alcohol): 87 % of control | T/C (dose: 100.0 mg/kg/injection, schedule: Q04DX003 (ip), vehicle: alcohol): 92 % of control | T/C (dose: 200.0 mg/kg/injection, schedule: Q01DX009 (ip), vehicle: alcohol): 88 % of control | T/C (dose: 200.0 mg/kg/injection, schedule: Q04DX003 (ip), vehicle: alcohol): 95 % of control

CC(C)C1CCC(/C=C(\C#N)C2CCC([N+](=O)[O-])CC2)CC1 (stereo not drawn)
T/C (dose: 100.0 mg/kg/injection, schedule: Q04DX002 (ip), vehicle: other): 95 % of control | T/C (dose: 200.0 mg/kg/injection, schedule: Q04DX002 (ip), vehicle: other): 95 % of control | T/C (dose: 400.0 mg/kg/injection, schedule: Q04DX002 (ip), vehicle: other): 92 % of control

C=C(C)c1cc2ccccc2cc1O
T/C (dose: 100.0 mg/kg/injection, schedule: Q01DX009 (ip), vehicle: saline with Tween-80): 98 % of control | T/C (dose: 100.0 mg/kg/injection, schedule: Q04DX003 (ip), vehicle: saline with Tween-80): 90 % of control | T/C (dose: 200.0 mg/kg/injection, schedule: Q01DX009 (ip), vehicle: saline with Tween-80): 100 % of control | T/C (dose: 200.0 mg/kg/injection, schedule: Q04DX003 (ip), vehicle: saline with Tween-80): 94 % of control | T/C (dose: 400.0 mg/kg/injection, schedule: Q01DX009 (ip), vehicle: saline with Tween-80): 98 % of control | T/C (dose: 400.0 mg/kg/injection, schedule: Q04DX003 (ip), vehicle: saline with Tween-80): 92 % of control

CC1(C)C(=O)C(C)(C)C1O
T/C (dose: 50.0 mg/kg/injection, schedule: Q04DX003 (ip), vehicle: saline): 95 % of control | T/C (dose: 75.0 mg/kg/injection, schedule: Q01DX001 (ip), vehicle: acetone): 106 % of control | T/C (dose: 100.0 mg/kg/injection, schedule: Q01DX001 (ip), vehicle: saline): 97 % of control | T/C [1]: 93 % of control | T/C (dose: 150.0 mg/kg/injection, schedule: Q01DX001 (ip), vehicle: acetone): 104 % of control | T/C (dose: 200.0 mg/kg/injection, schedule: Q01DX001 (ip), vehicle: saline): 111 % of control | T/C [2]: 87 % of control | T/C (dose: 300.0 mg/kg/injection, schedule: Q01DX001 (ip), vehicle: acetone): 106 % of control

CSc1ccc(NC(=O)N(CCCl)N=O)cc1
T/C (dose: 0.7 mg/kg/injection, schedule: Q01DX001 (ip), vehicle: carboxymethylcellulose (CMC)): 109 % of control | T/C (dose: 1.5 mg/kg/injection, schedule: Q01DX001 (ip), vehicle: carboxymethylcellulose (CMC)): 112 % of control | T/C (dose: 2.0 mg/kg/injection, schedule: Q01DX009 (ip), vehicle: other): 171 % of control | T/C (dose: 2.6 mg/kg/injection, schedule: Q01DX009 (ip), vehicle: carboxymethylcellulose (CMC)): 113 % of control | T/C (dose: 4.0 mg/kg/injection, schedule: Q01DX009 (ip), vehicle: carboxymethylcellulose (CMC)): 119 % of control | T/C (dose: 4.0 mg/kg/injection, schedule: Q01DX009 (ip), vehicle: other): 180 % of control | T/C (dose: 8.0 mg/kg/injection, schedule: Q01DX001 (ip), vehicle: other): 208 % of control | T/C (dose: 8.0 mg/kg/injection, schedule: Q01DX009 (ip), vehicle: other): 170 % of control | T/C (dose: 8.3 mg/kg/injection, schedule: Q01DX001 (ip), vehicle: carboxymethylcellulose (CMC)): 175 % of control | T/C (dose: 9.0 mg/kg/injection, schedule: Q01DX009 (ip), vehicle: carboxymethylcellulose (CMC)): 156 % of control | T/C (dose: 12.0 mg/kg/injection, schedule: Q01DX001 (ip), vehicle: other): 194 % of control | T/C (dose: 12.5 mg/kg/injection, schedule: Q01DX001 (ip), vehicle: carboxymethylcellulose (CMC)): 187 % of control | T/C (dose: 18.0 mg/kg/injection, schedule: Q01DX001 (ip), vehicle: other): 101 % of control | T/C (dose: 18.7 mg/kg/injection, schedule: Q01DX001 (ip), vehicle: carboxymethylcellulose (CMC)): 211 % of control | T/C (dose: 25.0 mg/kg/injection, schedule: Q01DX001 (ip), vehicle: carboxymethylcellulose (CMC)): 94 % of control
